{"source": "patent US6509163B1", "about": "“Methods of screening modulators of mammalian P2X7 purinergic receptors” (Glaxo Group Limited, priority 1997, dated 2003)", "target": "T1, r-hP2X7 (rat 1-346, human 347-595) (Rattus norvegicus, UniProt Q64663, A359S/A378V/A493C/A522V/A540S/C350F/D413N/D475V/E375Q/E438D/E521H/E537D/E539D/G538V/H448D/I354L/I464K/I516L/I541T/K419R/K544R/K576R/L353F/L437T/L525F/M459I/N356D/N481S/N490S/P390S/P407S/Q433A/Q463R/Q505A/Q585E/R366H/R491H/R501K/S370W/S443P/S445A/S449T/S514R/S552C/T348A/T361N/T434M/T584S/V367I/V467T/V559G/W410R/Y593S)", "T1 construct": "r-hP2X7 (rat 1-346, human 347-595); expressed in transfected cells; host or cells: HEK293 (transient)", "T1 sequence (Q64663 1-595 T348A/C350F/L353F/I354L/N356D/A359S/T361N/R366H/V367I/S370W/E375Q/A378V/P390S/P407S/W410R/D413N/K419R/Q433A/T434M/L437T/E438D/S443P/S445A/H448D/S449T/M459I/Q463R/I464K/V467T/D475V/N481S/N490S/R491H/A493C/R501K/Q505A/S514R/I516L/E521H/A522V/L525F/E537D/G538V/E539D/A540S/I541T/K544R/S552C/V559G/K576R/T584S/Q585E/Y593S)": "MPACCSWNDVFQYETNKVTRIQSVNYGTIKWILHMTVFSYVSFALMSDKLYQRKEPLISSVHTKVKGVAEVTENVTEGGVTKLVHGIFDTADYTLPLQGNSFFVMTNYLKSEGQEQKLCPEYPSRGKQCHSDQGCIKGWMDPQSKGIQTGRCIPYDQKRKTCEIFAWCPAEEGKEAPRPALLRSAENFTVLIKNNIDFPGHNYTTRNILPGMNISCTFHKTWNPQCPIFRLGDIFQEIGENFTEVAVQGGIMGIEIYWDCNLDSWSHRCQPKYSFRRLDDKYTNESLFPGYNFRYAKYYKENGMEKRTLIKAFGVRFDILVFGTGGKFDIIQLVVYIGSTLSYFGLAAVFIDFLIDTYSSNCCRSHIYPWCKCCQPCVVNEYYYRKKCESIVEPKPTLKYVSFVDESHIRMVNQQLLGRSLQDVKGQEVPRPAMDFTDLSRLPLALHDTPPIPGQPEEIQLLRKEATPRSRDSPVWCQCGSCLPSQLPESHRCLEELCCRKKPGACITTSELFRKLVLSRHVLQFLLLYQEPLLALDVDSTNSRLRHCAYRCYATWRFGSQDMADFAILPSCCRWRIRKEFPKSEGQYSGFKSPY", "test": "Whole-cell recordings in HEK293 cells expressing chimeric r-hP2X7 receptors", "format": "cell-based", "conditions": "low divalent concentrations, after removal of BzATP, n=10", "from_the_text": "Chimeras. A silent restriction site (NheI) was introduced at the equivalent positions in the rat and human cDNAs using the Pfu mutagenesis kit (Stratagene) (T to G at 1069 in rP2X7; G to A at 1072 in hP2X7) . A NheI-XhoI fragment corresponding to 3′ extremity of each cDNA was then excised and subcloned in the opposite plasmid (i.e. human 3′ end into rat background). The resulting chimeras were h-rP2X7 (human 1-346, rat 347-595) and r-hP2X7 (rat 1-346, human 347-595) (FIG. 5). All constructions were sequenced on their entire coding region.\nCell culture. HEK293 cells were transiently transfected with cDNA (1 μg/ml) and lipofectin dissolved in Optimem (GIBCO) placed into petri dishes containing four coverslips onto which cells were plated at a density of about 8×10^4/coverslip. Cells were washed 5 h later and normal DMEM applied. Electrophysiological studies or dye uptake measurements were carried out 18-49 h later. For each set of transfections, parallel experiments were performed on HEK cells transfected with cDNA encoding both rP2X7 and hP2X7 receptors.\nElectrophysiological experiments. Whole-cell recordings were made using the EPC9 patch-clamp amplifier and Pulse acquisition programs (HEKA, Lambrecht, Germany). Patch pipettes (5-7 MΩ) contained (mM) CsCl or NaCl 154, EGTA 10, HEPES 5. […]", "data": [{"smiles": "Nc1ncnc2c1ncn2[C@@H]1O[C@H](COP(=O)(O)OP(=O)(O)OP(=O)(O)O)[C@@H](OC(=O)c2ccc(C(=O)c3ccccc3)cc2)[C@H]1O", "note": "[BzATP, 3′-O-(4-benzoyl)benzoyl ATP]", "values": [{"measurement": "current measured at 30 s, of peak", "value": "31±3"}]}]}
